# Source: patent publication US9828333B2, “Compounds for the treatment of influenza” (CHRISTIAN-ALBRECHTS-UNIVERSITAT ZU KIEL, priority 2011, dated 2017)
# Read-outs that look alike come from different tables or passages of the source.
# Assays:
# [1] = tested on: influenza A virus A/Jena/5258/2009 (pandemic H1N1; oseltamivir-sensitive); format: cell-based
# [2] = tested on: influenza A virus A/Jena/5258/2009; assay: microbe, parasite or virus in culture; format: cell-based, influenza A virus H1N1; details: Influenza A virus, MDCK, read-out: 50% inhibitory concentration, A/Jena/5258/2009
# [3] = tested on: influenza A virus A/342/2009; assay: microbe, parasite or virus in culture; format: cell-based, influenza A virus H1N1; details: for IC50: read-out: 50% inhibitory concentration, A/342/2009
# [4] = physchem; format: physicochemical; details: aqueous buffer, thermodynamic from solid
# Protocol: 2. Solubility Assays of the Compounds Tested
# Determining the Solubility at Different pH Values:
# Therefor, a few mg of the compounds were weighed and mixed with the volume of 50 mM KH2PO4 buffer of respective pH value for a 50 mM solution. […] Subsequently, the undissolved portion was removed by centrifugation at 10.000 rpm for 15 min, and the concentration in the supernatant was determined by HPLC.
# [5] = target: albumin (Homo sapiens, UniProt P02768); format: in vitro ADME; details: 4% albumin solution, average of three concentrations (10, 25, 50 μM)
# albumin, sequence (P02768 25-609): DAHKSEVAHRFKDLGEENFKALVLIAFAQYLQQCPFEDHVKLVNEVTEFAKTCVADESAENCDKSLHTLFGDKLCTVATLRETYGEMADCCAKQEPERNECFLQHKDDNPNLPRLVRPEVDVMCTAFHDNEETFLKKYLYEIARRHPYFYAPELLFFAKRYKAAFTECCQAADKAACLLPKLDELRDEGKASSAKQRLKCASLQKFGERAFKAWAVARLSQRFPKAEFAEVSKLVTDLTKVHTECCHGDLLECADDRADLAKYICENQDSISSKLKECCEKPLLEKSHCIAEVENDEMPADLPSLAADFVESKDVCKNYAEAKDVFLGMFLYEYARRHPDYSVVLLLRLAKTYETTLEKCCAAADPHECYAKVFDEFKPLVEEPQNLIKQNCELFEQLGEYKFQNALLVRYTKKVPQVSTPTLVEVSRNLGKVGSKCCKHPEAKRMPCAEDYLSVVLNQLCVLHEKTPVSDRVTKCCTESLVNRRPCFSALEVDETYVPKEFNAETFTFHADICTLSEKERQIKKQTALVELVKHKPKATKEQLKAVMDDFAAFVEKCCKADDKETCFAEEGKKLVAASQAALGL
# Protocol: 3. Determination of Protein Binding of the Amidine Effective Form (3) as Well as of Prodrugs Thereof (2, 4) and of the Guanidine Effective Form (9) as Well as of Prodrugs Thereof (6, 10)
# (§1) The plasma protein binding was carried out in three different concentrations (10, 25, and 50 μM). A 4% albumin solution was used as protein solutions. In each case, 50 μl of a 10-fold concentrated substance solution were pipetted in 450 μl of the protein solution. The incubation was carried out for 15 minutes in the shaking water bath at 37° C. Subsequently, the samples were transferred in ultra-filtration units (Vivaspin 500, 10 kDa cut-off) and centrifuged for 15 min at 10.000 rpm. The filtrate was analyzed by HPLC. In addition, a control was run for each concentration, which was not treated with protein and not centrifuged.
# [6] = in vitro; format: in vitro ADME; details: human plasma instead of the 4% albumin solution; read-out: Protein binding (converted)
# Protocol: . Therefor, human plasma was used instead of the 4% albumin solution. […]. The values are as expected somewhat higher than the values obtained with the 4% albumin solution and are to be traced back to the presence of other plasma proteins (e.g. α1-acidic glycoprotein) in addition to albumin.
# as §1
# . Therefor, instead of the 4% albumin solution, human plasma was used. […]. As anticipated, the values are somewhat higher than the values obtained with the 4% albumin solution and are due to the presence of other plasma proteins (e.g., α1-acidic glycoprotein) besides the albumin.
# [7] = in vivo; details: rat; for Plasma level of derivative 9 (Conc.): intravenous administration of derivative 9, 10 mg/kg
# Protocol: Sprague Dawley (SD) rats were supplied for habitation 10 days before the start of the experiment, weighing ˜300-350 g and kept in an air conditioned room with a constant temperature of 20° C. and a humidity of 50%. In this room there was a day-night rhythm of twelve hours. The dark phase began daily at 18 o'clock and turned over to the light phase at 6 clock. The rats were kept over the acclimatization period in standard cages of the size 3 (length: 42 cm, width 26 cm, height: 15 cm) and transferred three days before commencement of an experiment into a special experimental room, placed in the identical environmental conditions. They received a maintenance diet (maintenance diet for rats and mice; No. 1320; Altromin) and tap water ad libitum.
# A catheter was implanted in the vein as well as in the arteria femoralis of rats receiving an i.v. administration. Rats receiving only oral administration of substances received a […] catheter only.
# The catheterized animals were kept after surgery for a day in the experimental room and individually in their experimental cages. The application of the test compounds was carried out on the second day after the operation. On the experimental day, the rats were weighed one hour prior to the test and the arterial catheter was flushed with 300 μl of heparin solution. Subsequently, the i.v. or oral administration of the compounds was carried out.
# The oral administrations were performed as a suspension or solution made with gum arabic (10% w/v) by gavage.
# The oral administrations were made as suspension or solution with gum arabic (10% w/v) by gavage.
# After i.v. administration, plasma samples were taken at 5, 10, 20, 45, 90, 150, 240 and 360 min, respectively after oral administration after 30, 60, 90, 120, 180, 240 and 360 min. To this, in each case 300 μl of whole blood were taken using an insulin syringe and transferred into EDTA-coated Microvettes CB 300 (Sarstedt, Nümbrecht). After each withdrawal it was rinsed with 100 μl 0.9% saline or every 60 min with heparin solution (250 IU/ml). The blood sample was shaken briefly and put until centrifugation (4° C.; 14000 U/min; 10 min) on ice. Subsequently, the samples were frozen at −80° C.
# The plasma samples were processed and analyzed by HPLC. Therefor, the plasma samples were thawed at room temperature. In each case, 80 μl methanol (+0.2% TFA) were prepared and subsequently 80 μl of the plasma samples were pipetted into. The samples were shaken for 45 min to precipitate plasma proteins. The samples were frozen at −80° C., thawed and shaken for another 15 min. The samples were centrifuged for 15 min at 13.000 RPM and the supernatant was transferred into HPLC vials. In each case 50 μl were used for the determinations by LC/MS.
# The animal studies were evaluated using the following LC/MS method.
# [8] = target: neuraminidase of influenza A virus A/Jena/5258/2009 (H1N1-subtype) (Influenza A virus, UniProt A0A088CA11); assay: biochemical
# [9] = format: physicochemical; details: 0.2 mg/ml, pH 7.4 at RT and 4° C. or Aqua bidest at 4° C., 14 days
# Protocol: The storage stability in solution was determined at a concentration of 0.2 mg/ml. Therefor, a compound was dissolved in 50 mM KH2PO4 buffer, pH 7.4 respectively Aqua bidest and stored at RT (pH 7.4) or in a refrigerator at 4° C. (pH 7.4 respectively Aqua bidest) over the test period. The concentration of the active form was determined after 12 h, 1 d, 2 d, 4 d, 7 d and 14 d by HPLC.
# Stability Studies for the Amidine Effective Form (3) and Guanidine Effective Form (9) Over 2 Weeks Studies at pH 7.4:
# The storage stability in dissolved form was determined at a concentration of 0.2 mg/ml. For this purpose, the compound was dissolved in 50 mM KH2PO4 buffer pH 7.4 or in aqua bidest and stored for the investigation period at RT (pH 7.4) or in a refrigerator at 4° C. (pH 7.4 or aqua bidest). The concentration of the effective form was determined by HPLC after 12 h, 1 d, 2 d, 4 d, 7 d and 14 d.
# [10] = format: in vitro ADME, human; details: 37° C., up to 120 min
# Protocol: (§2) In addition, the substances were tested in human and murine plasma. Therefor, 630 μl of the plasma as mixed with 70 μl of a 2 mM stock solution of each compound in 10 mM phosphate buffer pH 7.4. The incubations were performed in a shaking water bath at 37° C. The incubation was terminated at the times 15, 30, 45, 60, 90 and 120 min by removal of 100 μl sample and addition of 100 μl acetonitrile. The samples were centrifuged (12,000 rpm/10 min) and the supernatant surveyed by HPLC.
# (§3) The stability studies were analyzed using the following HPLC method.
# [11] = format: in vitro ADME, murine; details: 37° C., up to 120 min
# Protocol: as §2, §3
# [12] = rat, in vivo; cited from earlier work
# [13] = Sprague Dawley, in vivo, iv, 10 mg/kg
# [14] = Sprague Dawley, in vivo, po, 50 mg/kg
smiles,measurement,setting,value
CCC(CC)O[C@@H]1C=C(C(=O)O)C[C@H](NC(C)=N)[C@H]1NC(C)=O [Compound 3],"90% inhibitory concentration, A/Jena/5258/2009",[1],0.001 (0.011) μM
same,"95% inhibitory concentration (values in parentheses), A/Jena/5258/2009",[1],0.001 (0.011) μM
same,IC50,[2],2 µM
same,IC50,"[3]; Influenza A virus, MDCK",12.2 µM
same,IC50,[3],12.1 µM
same,solubility at 30 min,[4],> 50 mM
same,Protein binding,[5],2.2 ± 1.5%
same,fraction unbound,[6],0.963
same,Bioavailability,[7]; [13],100%
same,MRT,[7]; [13],0.587 h
same,half-life,[7]; [13],0.642 h
same,half-life,"[7]; Sprague Dawley, in vivo, po",~1.87 h
same,Bioavailability,[7]; [14],3.0%
same,MRT,[7]; [14],1.867 h
same,cmax,[7]; [14],0.7 µg/mL
same,Plasma level of derivative 3 (Conc.) after oral administration of the labelled derivative,"[7]; Sprague Dawley, in vivo, po, 50 mg/kg, 0 min",0 nM
same,Plasma level of derivative 3 (Conc.) after oral administration of the labelled derivative,"[7]; Sprague Dawley, in vivo, po, 50 mg/kg, 30 min",1630 nM
same,Plasma level of derivative 3 (Conc.) after oral administration of the labelled derivative,"[7]; Sprague Dawley, in vivo, po, 50 mg/kg, 60 min",1590 nM
same,Plasma level of derivative 3 (Conc.) after oral administration of the labelled derivative,"[7]; Sprague Dawley, in vivo, po, 50 mg/kg, 90 min",1500 nM
same,Plasma level of derivative 3 (Conc.) after oral administration of the labelled derivative,"[7]; Sprague Dawley, in vivo, po, 50 mg/kg, 120 min",1250 nM
same,Plasma level of derivative 3 (Conc.) after oral administration of the labelled derivative,"[7]; Sprague Dawley, in vivo, po, 50 mg/kg, 180 min",610 nM
same,Plasma level of derivative 3 (Conc.) after oral administration of the labelled derivative,"[7]; Sprague Dawley, in vivo, po, 50 mg/kg, 240 min",300 nM
same,Plasma level of derivative 3 (Conc.) after oral administration of the labelled derivative,"[7]; Sprague Dawley, in vivo, po, 50 mg/kg, 360 min",40 nM
same,AUC,"[7]; Iv, 10 mg/kg, active form 3 in plasma",576.8
same,IC50,[8],0.0001 µM
"CCC(CC)O[C@@H]1C=C(C(=O)O)C[C@H](NC(=N)N)[C@H]1NC(C)=O [Compound 9, (3R,4R,5S)-4-acetamido-5-(N-guanidino)-3-(1-ethylpropoxy)cyclohex-1-en-1-carboxylic acid]","90% inhibitory concentration, A/Jena/5258/2009",[1],0.002 (0.003) μM
same,"95% inhibitory concentration (values in parentheses), A/Jena/5258/2009",[1],0.002 (0.003) μM
same,IC50,[2],1.1 µM
same,IC50,"[3]; Influenza A virus, MDCK",4.1 µM
same,Storage stability in solution,[9],stable
same,Stability/metabolism by plasma enzymes in human plasma,[10],not metabolized
same,Stability/metabolism by plasma enzymes in murine plasma,[11],not metabolized
same,Protein binding,[5],0.4 ± 2.8%
same,fraction unbound,[6],0.914
same,AUC,[7]; [13],4880 ng·h/mL
same,Bioavailability,[7]; [13],100%
same,MRT,[7]; [13],0.902 h
same,half-life,[7]; [13],2 h
same,half-life,"[7]; Sprague Dawley, in vivo, po",~1.63 h
same,Plasma level of derivative 9 (Conc.),[7]; time 5,23710 nM
same,Plasma level of derivative 9 (Conc.),[7]; time 10,18300 nM
same,Plasma level of derivative 9 (Conc.),[7]; time 20,12670 nM
same,Plasma level of derivative 9 (Conc.),[7]; time 45,5050 nM
same,Plasma level of derivative 9 (Conc.),[7]; time 90,1670 nM
same,Plasma level of derivative 9 (Conc.),[7]; time 150,540 nM
same,Plasma level of derivative 9 (Conc.),[7]; time 240,230 nM
same,Plasma level of derivative 9 (Conc.),[7]; time 360,110 nM
"CCOC(=O)C1=C[C@@H](OC(CC)CC)[C@H](NC(C)=O)[C@@H](N)C1 [Oseltamivir, (3R,4R,5S)-4-acetamido-5-amino-3-(1-ethylpropoxy)cyclohex-1-en-1-carboxylic acid ethyl ester, reference compound]","90% inhibitory concentration, A/Jena/5258/2009",[1],0.016 (0.021) μM
same,"95% inhibitory concentration (values in parentheses), A/Jena/5258/2009",[1],0.016 (0.021) μM
same,IC50,[2],13.2 µM
same,"50% inhibitory concentration, A/342/2009",[3],resistant
same,plasma half-life period,[12],0.733 h
same,IC50,[8],0.0001 µM
